Results reported in ChEMBL document CHEMBL1201862, “PubChem BioAssay data set” (2004).
Activity calls are given as the source filed them.

Key:
[1] = biological target: T1, Low molecular weight phosphotyrosine protein phosphatase (Homo sapiens, UniProt P24666); assay type: functional; settings: read-out: IC50_Mean;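 also: Dose-response confirmation assay measuring inhibition of LMPTP enzyme activity by fluorescence intensity read-out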
T1 sequence (P24666 whole entry): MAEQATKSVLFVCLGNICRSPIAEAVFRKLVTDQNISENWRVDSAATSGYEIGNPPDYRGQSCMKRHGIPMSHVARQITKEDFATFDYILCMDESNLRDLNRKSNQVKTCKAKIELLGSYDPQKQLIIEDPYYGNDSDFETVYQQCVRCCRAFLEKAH

[2] = inhibitors of HIV Env-driven cell fusion, dose response, cherry-pick (AID 652057); assay type: functional, cell-based
[3] = CEM21 lymphoblast cell cytotoxicity, dose response, cytotoxicity control for viral fusion inhibitor project, CellTiter-Glo luminescence, cherry-picked (AID 652042); assay type: functional, cell-based;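 also: potency for signal decrease meaning cytotoxicity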
[4] = ZM109 Env clade C HIV-1 fusion inhibitors, dose response, HeLa effector, CEM target cells, luciferase, cherry-pick (AID 652058); assay type: functional, cell-based
[5] = off-target signal loss in HeLa-CEM21 co-culture – HeLa F-luc CTL cells, cherry-picked, counter-screen for HIV-1 Env fusion inhibitor project, dose response (AID 652040); assay type: functional, cell-based;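 also: potency for signal decrease marking cytotoxic or nonspecific inhibition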
[6] = inhibitors of clade B AD8 Env fusion, dose response, cell-based, cherry-pick (AID 652062); assay type: functional;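 also: luciferase signal from cell-cell fusion driven by HIV-1 clade B AD8 Env; potency is for inhibitors of fusion seen as a drop in luminescence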
[7] = test system: Streptococcus; assay: Group A Streptococcus viability loss, dose response, counter-screen for streptokinase expression inhibitor project, luminescence, BacTiterGlo (AID 1915); assay type: functional, organism-based;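 also: potency for reduction of bacterial viability or growth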
[8] = biological target: T2, Streptokinase A (Streptococcus pyogenes serotype M1, UniProt P10520); assay: S. pyogenes streptokinase expression inhibitors, potency, dose response, plasminogen activation absorbance, OD405 (AID 1914); assay type: functional, Streptococcus pyogenes M1 GAS;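 also: secreted streptokinase activity via plasminogen activation per viability signal from cell pellet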
T2 sequence (P10520 whole entry): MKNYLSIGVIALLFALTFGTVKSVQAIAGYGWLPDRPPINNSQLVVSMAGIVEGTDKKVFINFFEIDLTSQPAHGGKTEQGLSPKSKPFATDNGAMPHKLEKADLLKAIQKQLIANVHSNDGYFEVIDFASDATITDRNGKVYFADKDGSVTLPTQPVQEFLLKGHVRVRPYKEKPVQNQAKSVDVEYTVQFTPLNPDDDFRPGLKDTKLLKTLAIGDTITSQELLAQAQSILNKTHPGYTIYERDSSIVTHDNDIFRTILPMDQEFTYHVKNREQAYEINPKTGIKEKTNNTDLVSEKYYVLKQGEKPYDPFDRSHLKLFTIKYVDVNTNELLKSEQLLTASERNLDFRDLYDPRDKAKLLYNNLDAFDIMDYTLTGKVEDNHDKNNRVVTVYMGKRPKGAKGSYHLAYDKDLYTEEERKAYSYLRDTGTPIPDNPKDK

[9] = biological target: T3, Serine/threonine-protein phosphatase (Candida dubliniensis (strain CD36 / CBS 7987 / NCPF 3949 / NRRLY-17841) (Yeast), UniProt B9W6M3); assay: calcineurin pathway inhibitors in yeast reporter, dose response, S. cerevisiae, CDRE-lacZ, luminescence, secondary (AID 2388); assay type: functional, cell-based;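 also: yeast reporter cells carrying a calcineurin-responsive lacZ construct stimulated with calcium chloride; luminescent beta-galactosidase reporter signal in whole cells rather than isolated phosphatase activity; potency for inhibition where a drop in reporter signal means calcineurin blockade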
T3 sequence (B9W6M3 whole entry): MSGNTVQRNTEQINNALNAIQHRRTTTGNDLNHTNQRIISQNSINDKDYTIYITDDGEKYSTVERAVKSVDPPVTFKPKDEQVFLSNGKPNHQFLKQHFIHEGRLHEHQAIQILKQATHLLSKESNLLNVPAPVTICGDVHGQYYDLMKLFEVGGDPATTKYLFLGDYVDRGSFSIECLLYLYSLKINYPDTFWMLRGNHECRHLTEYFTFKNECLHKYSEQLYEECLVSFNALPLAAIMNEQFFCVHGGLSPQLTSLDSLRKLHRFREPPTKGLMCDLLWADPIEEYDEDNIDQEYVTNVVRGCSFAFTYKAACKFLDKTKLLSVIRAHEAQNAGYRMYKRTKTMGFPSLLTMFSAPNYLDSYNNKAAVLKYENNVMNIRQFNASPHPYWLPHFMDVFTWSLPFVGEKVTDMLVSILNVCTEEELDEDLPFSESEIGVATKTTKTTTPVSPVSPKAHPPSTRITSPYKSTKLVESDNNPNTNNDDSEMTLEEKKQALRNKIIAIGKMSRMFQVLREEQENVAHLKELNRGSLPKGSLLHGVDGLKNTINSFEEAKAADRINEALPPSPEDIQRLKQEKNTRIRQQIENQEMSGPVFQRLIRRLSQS

[10] = NIH-3T3 fibroblast cytotoxicity, dose response, cytotoxicity control, cell-based, fluorescence, Alamar Blue, secondary assay (AID 2327); assay type: functional;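 also: NIH-3T3 mouse fibroblasts cultured with fluconazole at 8 µg/mL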
[11] = test system: Streptococcus sp. 'group A'; assay: growth inhibition of control SK(-) GAS strain, dose response, counter-screen for streptokinase expression inhibitor project, luminescence, kanamycin, BacTiterGlo, confirmation (AID 1900); assay type: functional, organism-based
[12] = C. albicans growth with fluconazole, confirmation, fluorescence, retest (AID 2467); assay type: functional, cell-based
[13] = biological target: ATP-dependent molecular chaperone HSP82 (Candida albicans (strain WO-1) (Yeast), UniProt C4YTQ8); assay: loss of DOC-induced GRE-beta-galactosidase reporter signal, dose response, Hsp90 inhibitor project, S. cerevisiae, luminescence (AID 2400); assay type: functional, cell-based;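 also: beta-galactosidase luminescence from glucocorticoid response element reporter as proxy for Hsp90 function; inhibitor potency where signal loss means Hsp90 inhibition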
Chain of ATP-dependent molecular chaperone HSP82 (C4YTQ8 whole entry): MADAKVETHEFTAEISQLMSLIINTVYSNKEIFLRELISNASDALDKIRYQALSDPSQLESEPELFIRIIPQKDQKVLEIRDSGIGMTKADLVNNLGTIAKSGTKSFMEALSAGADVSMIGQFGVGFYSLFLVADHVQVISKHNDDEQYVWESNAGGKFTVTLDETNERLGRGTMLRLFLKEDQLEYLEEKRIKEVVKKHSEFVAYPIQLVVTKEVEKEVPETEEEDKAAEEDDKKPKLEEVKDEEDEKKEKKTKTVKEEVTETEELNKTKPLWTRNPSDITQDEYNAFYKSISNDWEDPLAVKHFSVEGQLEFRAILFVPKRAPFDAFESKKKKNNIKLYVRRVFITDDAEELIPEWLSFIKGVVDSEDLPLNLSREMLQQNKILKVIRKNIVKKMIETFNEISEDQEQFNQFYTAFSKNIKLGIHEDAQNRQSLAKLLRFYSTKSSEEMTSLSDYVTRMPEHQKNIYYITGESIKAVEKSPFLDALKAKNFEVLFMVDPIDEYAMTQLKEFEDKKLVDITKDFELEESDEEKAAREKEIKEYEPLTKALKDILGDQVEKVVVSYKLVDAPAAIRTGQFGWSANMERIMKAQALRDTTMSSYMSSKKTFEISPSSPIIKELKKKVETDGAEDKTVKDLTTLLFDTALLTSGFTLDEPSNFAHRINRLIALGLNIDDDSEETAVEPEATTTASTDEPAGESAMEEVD

[14] = biological target: T4, Corticotropin-releasing factor receptor 2/Corticotropin-releasing factor-binding protein (Homo sapiens, UniProt P24387+Q13324); assay: activators of CRF receptor 2 with binding protein – uHTS hits, confirmation (AID 602473); assay type: functional; settings: read-out: EC50_Mean
T4 sequence (Q13324 whole entry): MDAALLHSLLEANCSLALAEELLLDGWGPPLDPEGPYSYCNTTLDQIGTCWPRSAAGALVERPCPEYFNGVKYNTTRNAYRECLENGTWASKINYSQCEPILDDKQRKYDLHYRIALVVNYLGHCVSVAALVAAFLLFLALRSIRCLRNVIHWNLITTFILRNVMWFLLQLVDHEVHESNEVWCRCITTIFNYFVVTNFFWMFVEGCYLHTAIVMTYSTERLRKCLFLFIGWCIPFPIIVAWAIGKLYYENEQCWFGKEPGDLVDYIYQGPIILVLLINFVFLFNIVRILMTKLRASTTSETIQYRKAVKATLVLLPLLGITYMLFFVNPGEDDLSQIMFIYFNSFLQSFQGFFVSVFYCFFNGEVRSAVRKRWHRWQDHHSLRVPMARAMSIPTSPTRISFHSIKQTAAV
T4 sequence (P24387 whole entry): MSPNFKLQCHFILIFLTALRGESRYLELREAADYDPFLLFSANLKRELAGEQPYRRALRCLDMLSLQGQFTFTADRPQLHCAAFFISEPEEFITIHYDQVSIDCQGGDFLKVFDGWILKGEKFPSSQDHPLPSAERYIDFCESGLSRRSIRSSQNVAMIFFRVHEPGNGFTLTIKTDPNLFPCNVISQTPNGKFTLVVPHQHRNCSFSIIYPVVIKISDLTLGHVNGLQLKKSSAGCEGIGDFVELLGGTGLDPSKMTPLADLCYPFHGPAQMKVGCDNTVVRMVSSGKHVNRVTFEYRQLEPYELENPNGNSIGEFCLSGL

[15] = cells; assay type: functional, cell-based
[16] = cells; assay type: functional, cell-based; remark: listed apart in the source
[17] = biological target: T5, Sentrin-specific protease 8 (Homo sapiens, UniProt Q96LD8); assay type: functional
T5 sequence (Q96LD8 whole entry): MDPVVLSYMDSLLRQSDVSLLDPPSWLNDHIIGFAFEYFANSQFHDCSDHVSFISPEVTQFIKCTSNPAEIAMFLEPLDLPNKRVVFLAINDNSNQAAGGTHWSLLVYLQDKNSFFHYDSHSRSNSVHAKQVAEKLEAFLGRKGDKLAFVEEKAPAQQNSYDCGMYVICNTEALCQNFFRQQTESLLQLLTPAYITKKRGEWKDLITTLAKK

[18] = biological target: T5, Sentrin-specific protease 8; assay type: functional; remark: listed apart in the source
[19] = biological target: T6, Apoptotic protease-activating factor 1 (Homo sapiens, UniProt O14727); assay: SAR analysis of small molecule Activators of Apaf-1 in a Fluorescent assay.; assay type: functional; settings: read-out: EC50_Mean;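 also: caspase-3 cleavage of fluorogenic Rh110 DEVD substrate downstream of apoptosome activation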
T6 sequence (O14727 whole entry): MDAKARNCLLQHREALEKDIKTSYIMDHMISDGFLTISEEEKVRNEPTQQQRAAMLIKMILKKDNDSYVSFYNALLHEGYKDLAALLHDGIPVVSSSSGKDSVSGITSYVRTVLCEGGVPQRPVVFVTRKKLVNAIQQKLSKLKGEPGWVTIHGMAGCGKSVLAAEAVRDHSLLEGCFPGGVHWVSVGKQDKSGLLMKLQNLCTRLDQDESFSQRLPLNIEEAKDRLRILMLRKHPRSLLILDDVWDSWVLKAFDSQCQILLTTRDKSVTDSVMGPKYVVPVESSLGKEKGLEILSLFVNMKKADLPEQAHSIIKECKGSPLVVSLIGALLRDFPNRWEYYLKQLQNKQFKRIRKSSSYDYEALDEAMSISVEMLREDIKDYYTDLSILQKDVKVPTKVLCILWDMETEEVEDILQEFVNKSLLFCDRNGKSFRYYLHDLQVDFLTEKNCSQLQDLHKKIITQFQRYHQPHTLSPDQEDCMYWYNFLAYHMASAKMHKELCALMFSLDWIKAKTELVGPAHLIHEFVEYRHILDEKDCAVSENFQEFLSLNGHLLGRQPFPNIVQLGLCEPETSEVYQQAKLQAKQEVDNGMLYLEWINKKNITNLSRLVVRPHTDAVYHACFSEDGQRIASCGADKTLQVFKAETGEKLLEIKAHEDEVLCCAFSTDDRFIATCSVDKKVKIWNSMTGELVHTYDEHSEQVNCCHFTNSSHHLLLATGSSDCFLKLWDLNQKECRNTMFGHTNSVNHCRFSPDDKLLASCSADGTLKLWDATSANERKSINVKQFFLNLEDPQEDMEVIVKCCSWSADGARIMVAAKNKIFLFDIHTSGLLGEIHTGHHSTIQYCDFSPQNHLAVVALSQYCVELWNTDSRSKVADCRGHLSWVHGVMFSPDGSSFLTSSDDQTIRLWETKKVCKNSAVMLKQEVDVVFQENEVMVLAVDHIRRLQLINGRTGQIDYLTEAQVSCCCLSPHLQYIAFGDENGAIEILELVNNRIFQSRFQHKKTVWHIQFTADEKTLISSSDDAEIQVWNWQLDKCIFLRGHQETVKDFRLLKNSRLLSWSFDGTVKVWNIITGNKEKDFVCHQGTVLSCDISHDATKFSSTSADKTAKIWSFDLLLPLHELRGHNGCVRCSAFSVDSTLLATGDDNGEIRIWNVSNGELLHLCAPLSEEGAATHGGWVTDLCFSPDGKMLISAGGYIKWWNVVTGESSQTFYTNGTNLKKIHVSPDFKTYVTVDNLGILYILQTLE

[20] = test system: H9c2; assay: cells; assay type: functional, cell-based; settings: Rattus norvegicus, H9c2, Myocardium;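 also: confirmatory concentration-response retest of ultra-high-throughput screening hits for modulation of myocardial damage; cell death induced by hydrogen peroxide oxidative stress; compound pretreatment for 60 min then peroxide exposure for 2 h; potency is for protecting the cells against peroxide damage rather than for killing them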
[21] = biological target: Prothrombin (Bos taurus, UniProt P00735); assay: thrombin inhibition, dose response, biochemical, fluorescence polarization, uHTS hits (AID 602369); assay type: functional
[22] = biological target: 72 kDa type IV collagenase (Homo sapiens, UniProt P08253); assay: Dose Response validation of uHTS RPN11 inhibitor hits using a MMP-2 Fluorescence assay.; assay type: functional
Chain of 72 kDa type IV collagenase (P08253 whole entry): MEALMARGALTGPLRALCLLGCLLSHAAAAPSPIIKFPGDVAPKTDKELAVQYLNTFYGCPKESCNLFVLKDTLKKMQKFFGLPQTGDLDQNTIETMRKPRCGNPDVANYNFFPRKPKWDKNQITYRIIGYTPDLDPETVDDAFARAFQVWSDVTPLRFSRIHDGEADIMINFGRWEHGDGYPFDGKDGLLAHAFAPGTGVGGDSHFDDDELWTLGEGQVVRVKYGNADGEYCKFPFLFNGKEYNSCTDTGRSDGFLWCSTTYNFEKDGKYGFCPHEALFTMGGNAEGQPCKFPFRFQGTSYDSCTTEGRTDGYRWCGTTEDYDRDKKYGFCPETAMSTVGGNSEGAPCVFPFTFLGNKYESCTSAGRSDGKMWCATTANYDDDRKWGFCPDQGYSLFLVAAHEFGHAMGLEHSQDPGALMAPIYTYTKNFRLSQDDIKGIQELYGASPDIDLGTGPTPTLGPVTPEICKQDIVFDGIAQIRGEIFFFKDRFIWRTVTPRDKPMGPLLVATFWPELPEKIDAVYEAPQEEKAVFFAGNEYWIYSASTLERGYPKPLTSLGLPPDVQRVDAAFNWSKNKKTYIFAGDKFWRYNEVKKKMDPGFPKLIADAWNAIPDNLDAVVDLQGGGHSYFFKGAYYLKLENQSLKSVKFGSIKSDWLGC

[23] = biological target: T7, Small ubiquitin-related modifier 1 (Homo sapiens, UniProt P63165); assay: inhibitors of SUMO1 partner interactions, dose response, biochemical, FRET (AID 624383); assay type: functional; settings: read-out: IC50_Mean
T7 sequence (P63165 whole entry): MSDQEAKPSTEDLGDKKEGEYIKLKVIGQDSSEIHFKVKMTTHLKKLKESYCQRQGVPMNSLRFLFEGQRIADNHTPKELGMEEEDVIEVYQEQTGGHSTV

[24] = biological target: T7, Small ubiquitin-related modifier 1; assay: inhibitors of SUMO1 peptide binding, dose response, biochemical, fluorescence polarization, uHTS hits (AID 624382); assay type: functional; settings: read-out: IC50_Mean
[25] = biological target: 26S proteasome non-ATPase regulatory subunit 14 (Homo sapiens, UniProt O00487); assay: inhibition of proteasome subunit RPN11 – biochemical, fluorescence polarization, uHTS hits, confirmation (AID 602368); assay type: functional
Chain of 26S proteasome non-ATPase regulatory subunit 14 (O00487 whole entry): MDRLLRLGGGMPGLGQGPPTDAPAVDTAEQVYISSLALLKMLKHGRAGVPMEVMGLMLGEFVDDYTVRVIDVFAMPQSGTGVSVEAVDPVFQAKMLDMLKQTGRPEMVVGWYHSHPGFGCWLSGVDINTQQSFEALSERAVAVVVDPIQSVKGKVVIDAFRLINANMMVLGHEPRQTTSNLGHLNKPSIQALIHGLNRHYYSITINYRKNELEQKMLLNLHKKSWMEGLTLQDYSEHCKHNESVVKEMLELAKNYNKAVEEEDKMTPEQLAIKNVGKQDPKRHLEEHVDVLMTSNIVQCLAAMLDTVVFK

SMILES: O=C(NCCN1CCCC1)c1ccc(Cn2c(=S)[nH]c3cc4c(cc3c2=O)OCO4)cc1
- IC50 [1]: 27.2 µM (inactive)

SMILES: O=C(c1cccc(C(F)(F)F)c1)N1CCc2c([nH]c3ccccc23)C1C(F)(F)F (stereo not given)
- AC50 [2]: 5.55 µM (active)
- AC50 [3]: 50.8 µM (active)
- AC50 [4]: 0.66 µM (active)
- AC50 [5]: 1.88 µM (active)
- AC50 [6]: 1.19 µM (active)

SMILES: O=C(Nc1nnc(-c2ccncc2)o1)c1ccc2ccccc2c1
- EC50 [7]: 19.5 µM (active)
- EC50 [8]: > 150 µM (not active)
- EC50 [9]: > 180 µM (inactive)
- EC50 [10]: > 150 µM (inactive)
- EC50 [11]: 6.52 µM (active)
- EC50 [12]: 1.47 µM (active)
- EC50 [13]: > 150 µM (inactive)

SMILES: CCOC(=O)Cc1csc(NC(=O)CSc2nnc(-c3ccncc3)o2)n1
- EC50 [14]: > 53 µM (inactive)
- EC50 [9]: > 180 µM (inactive)
- EC50 [10]: > 150 µM (inactive)
- EC50 [12]: 0.517 µM (active)
- EC50 [13]: > 150 µM (inactive)

SMILES: O=C(c1nc2ccccn2c1CNCC1OCCc2ccccc21)N1CCOCC1 (stereo not given)
- IC50 [15]: > 29.9 µM (inactive)
- EC50 [16]: > 29.9 µM (inactive)

SMILES: CC(=O)Nc1ccc(NC(=O)COC(=O)c2ccc([N+](=O)[O-])o2)cc1
- IC50 [17]: 7.03 µM (active)
- IC50 [18]: 11.8 µM (active)

SMILES: CCOC(=O)C1(C)Oc2ccccc2NC1=O (stereo not given)
- EC50 [19]: > 100 µM (inactive)

SMILES: COc1cc(/C=N/NC(=O)c2cccnc2)ccc1OCC(=O)Nc1ccccc1Cl
- IC50 [20]: > 79 µM (inactive)
- IC50 [21]: > 100 µM (inactive)
- IC50 [22]: > 100 µM (inactive)
- IC50 [23]: 100 µM (inactive)
- IC50 [24]: > 66.6 µM (inactive)
- IC50 [25]: 47 µM (active)

SMILES: COC(=O)c1coc(-c2cnc(OC)nc2)n1
- EC50 [19]: > 100 µM (inactive)

SMILES: COC(=O)[C@]12C[C@H](CC(=O)NCc3ccc(C)o3)C(=O)N(CCC3=CCCCC3)C1=C[C@H](C(C)(C)C)O[C@@H]2C
- AC50 [2]: 1.28 µM (active)
- AC50 [3]: 20.3 µM (active)
- AC50 [4]: < 0.26 µM (active)
- AC50 [5]: 1.71 µM (active)
- AC50 [6]: 2.73 µM (active)
